What was measured:
BC-1 = BC-1 primary effusion lymphoma cell proliferation; format: cell-based; conditions: primary effusion lymphoma (PEL) cell line (FIG. 10)
Source text: FIG. 10. A primary effusion lymphoma (PEL) cell line (BC-1, infected with both Kaposi's sarcoma herpesvirus and Epstein Barr Virus) is also killed by the listed compounds.

Wild-type HIV-1 = assay: A3G-mediated restriction of wild-type HIV-1; virus from 293T stably expressing A3G, TZM-bl readout; format: cell-based; conditions: Human immunodeficiency virus 1, HEK-293T, read-out: A3G-mediated Restriction by Compounds on Wild-type HIV-1 (% of HIV replication relative to DMSO treated Control)
Protocol: To test the effect of compounds shown to boost A3G-Luc levels in our screening systems on inhibition of wild-type HIV-1 replication by A3G or A3F, 293T cell lines stably expressing A3G or A3F were plated (750,000 cells per well in 6-well plate). At 24 hrs post plating, 1.5 μg of a wild-type (Vif-positive) HIV-1 proviral vector, NL4.3, was transfected into the 293T stable cell lines expressing either A3G or A3F. At 4 hrs post transfection, either DMSO as a control or an individual compound from series described below was added into the culture medium at a 10 μM concentration. At 1 day post transfection, supernatant fluids containing viral particles were filtered through […] filter to remove cellular debris. To test the effect of compound on HIV-1 replication, TZM-bl indicator cells were plated at a density of 10,000 cells/well in a 96 well culture plate 24 hrs prior to infection. TZM-bl indicator cells express luciferase gene under the control of HIV LTR promoter and are routinely used to measure HIV-1 replication capability. On the day of infection, the culture medium was removed and the cells inoculated with equal amount of HIV-1 particles in triplicate with 100 μl of viral supernatants in culture medium containing 20 μg/ml DEAE-dextran. After 24 hrs of incubation, culture medium was removed from each well and replaced with 100 μl of Britelite Plus luciferase assay substrate. Following 5 min. of incubation at room temperature, 75 μl of each cell lysate was transferred to a 96-well OptiPlate 96 and luminescence was measured in a VICTOR X2 Multilabel Reader as described above. Relative infectivity was calculated by plotting luciferase activity from viral particle from DMSO treated A3G or A3F cell lines as 100%. We only tested effect A3F- or A3G mediated restriction of HIV-1 replication by compounds boosting luciferase activity by more than 160% compared to DMSO control sample.

A3G-Luc = A3G-Luc luciferase screen in 293T cells stably expressing A3G-Luc; format: cell-based, human; conditions: for A3G-Luc Activity (% of Relative Light Units compared to DMSO treated control): 10 μM, 48 hrs, DMSO = 100%
Source text: This background led to construction of cell lines to use in a search for compounds that might boost levels of A3s in the HIV target cells of the majority of HIV-infected persons who are non-controllers. The goal is to test a strategy of using such a booster in acute/early infection to prevent the hypothesized decrease of A3G and related A3s in an effort to increase “control” in persons lacking HLA B57/27-associated control. […] 293T and TZM-bl cells were maintained in DMEM (containing 4.5 g/liter glucose, L-glutamine, and sodium pyruvate) medium plus 10% fetal bovine serum, 50 IU/ml penicillin, and 50 μg/ml streptomycin at 37° C. and 5% CO2 throughout the experiments. […]. After collecting viral supernatant, 293T cells were infected with viral particles harboring the A3G-Luc expressing vector and selected with puromycin (0.75 μg/ml) for three days. Ten single cell clones of stable cells were isolated and tested for expression of A3G-Luc protein by both immunoblotting using antibody against A3G and measuring luciferase activity. Expressions in cell lines used for subsequent experiments are depicted in FIG. 2, upper panel. The A3G-Luc fusion protein was sensitive to Vif-mediated degradation (FIG. 3). Similar cells lines stably expressing A3F were constructed with the same methods (not shown).
To screen compounds that can boost A3G levels, 293T cells (25,000 cells per well in 96-well plate) stably expressing A3G-Luc protein or A3G-Luc/Vif proteins were plated. […] After 48 hrs of incubation with compounds culture medium was removed from each well and replaced with 100 μl of Britelite Plus luciferase assay substrate (PerkinElmer). Following 5 min. of incubation at room temperature, 75 μl of each cell lysate was transferred to a 96-well OptiPlate 96 (PerkinElmer) and luminescence was measured in a VICTOR X2 Multilabel Reader (PerkinElmer). Relative activity of compounds for their boosting capability A3G-Luc activity was calculated by plotting DMSO-treated A3G-Luc or A3G-Luc/Vif cells as 100%. Cellular cytotoxicity was measured by counting number of cells after 48 hrs of incubation with compounds compared to DMSO treated cells.

A3G-Luc/Vif = A3G-Luc/Vif luciferase screen in 293T cells stably co-expressing A3G-Luc and HIV-1 Vif; format: cell-based, human; conditions: for Vif-A3G-Luc Activity (% of RLUs compared to DMSO treated control): 10 μM, 48 hrs, DMSO = 100%
Protocol: FIG. 6. 293T cell clone #6 stably co-expressing A3G-Luciferase fusion protein together with HIV-1 Vif was used. Small molecule compounds were tested for their effects on stability of A3G and inhibition of Vif activity against A3G by measuring luciferase activity, relative to treatment with control DMSO only. The relative % luciferase activity was higher after treatment with NU compounds than DMSO.
[…]. After sorting, expression of both A3G-Luc and Vif was confirmed by immunoblotting using antibody against both A3G and Vif.
To screen compounds that can boost A3G levels, 293T cells (25,000 cells per well in 96-well plate) stably expressing A3G-Luc protein or A3G-Luc/Vif proteins were plated. After 24 hrs post plating culture medium was replaced with 100 μl of new medium containing either DMSO as a control or various compounds (10 μM concentration). After 48 hrs of incubation with compounds culture medium was removed from each well and replaced with 100 μl of Britelite Plus luciferase assay substrate (PerkinElmer). Following 5 min. of incubation at room temperature, 75 μl of each cell lysate was transferred to a 96-well OptiPlate 96 (PerkinElmer) and luminescence was measured in a VICTOR X2 Multilabel Reader (PerkinElmer). Relative activity of compounds for their boosting capability A3G-Luc activity was calculated by plotting DMSO-treated A3G-Luc or A3G-Luc/Vif cells as 100%. Cellular cytotoxicity was measured by counting number of cells after 48 hrs of incubation with compounds compared to DMSO treated cells.

SMILES	BC-1 cell proliferation (BC-1)	activity at 10 µM (Wild-type HIV-1) [%]	A3G-Luc Activity (% of Relative Light Units compared to DMSO treated control) (A3G-Luc) [%]	Vif-A3G-Luc Activity (% of RLUs compared to DMSO treated control) (A3G-Luc/Vif) [%]	increase of A3G (A3G-Luc; 293T stably expressing A3G-Luc, without Vif (FIG. 6))	increase of A3G (A3G-Luc/Vif; 293T stably expressing A3G-Luc, with Vif (FIG. 6))
COc1ccc(C(=O)Nc2ccc(Cl)c(Cl)c2)cc1NC(=O)CC1CC1 [NU-466]	inhibit BC-1 cell proliferation	72	318	202		
COc1ccc(C(=O)Nc2ccc(Cl)c(Cl)c2)cc1NC(=O)C(C)C [NU-52]	inhibit BC-1 cell proliferation	57	178	135	about 3 fold	about 3 fold
COc1ccc(C(=O)Nc2ccc(Cl)c(Cl)c2)cc1NC(=O)C1CCC1 [NU-302]	inhibit BC-1 cell proliferation	60	196	167		
